Where a name gives a salt, the structure may show the parent alone.
How the values were obtained:
[1] = DVS hygroscopicity and moisture measurement, second procedure; format: physicochemical; settings: 22° C.
Description: Moisture sorption isotherms of the crystalline phases were obtained by using a DVS-1 automated water sorption analyzer (Surface Measurements Systems, Alperton, Middlesex, United Kingdom). The reference material was an empty glass pan and the total gas flow was 200 sccm·min^−1 (Standard Cubic Centimeters per minute). Temperature of analysis was 22° C. For each measurement, precisely ca. 15 mg of the sample were weighed in a glass pan beforehand allowed for the tare, then placed in the analyzer.
As a first stage, dry nitrogen (0% R.H) was applied until constant weight of the sample in order to eliminate adsorbed or absorbed water (potential dehydration). Then, mass variations were recorded while R.H. was increased by steps of 10% R.H. The automated analyzer was allowed to start the following step as soon as the mass variation of the sample was less than 5.10^−4 mg·min^−1. The upper limit was adjusted below the deliquescence of the compound and never exceeded 98% R.H. This second stage was afterward followed by a stepped decrease of R.H. down to 0% R.H. This overall procedure constitutes a ‘Full cycle’ analysis. Several successive full cycles can be applied to the same sample.
DVSWin (v 2.18) was used as control and data collection software whereas data processing was performed by using DVS Standard Analysis Suite (v 4.3).
Further parameters used in DVS procedures are as follows: • Protocole Dynamic Vapour Sorption/Appareil ‘Surface Measurements Systems • Automated Water Sorption Analyser’/model: DVS-1 • Analysis method: • step mode, • Temperature: […] • number of steps, • step dm/dt<0.0005 (mg/min) • First stage R.H.=0% • Last Stage R.H.=98% • Half cycle or Full cycle (or several successive full cycles) • dm/dt window: 5 • Minimum Stage: 20 min • Maximum Stage: 120 min • Total Gaz Flow: 200 • Nitrogen: 200 Bars, H2O<3 ppm, O2<2 ppm, Ref. Azote N50 B50*0 • Initial sample weight: • Software—data collection and data processing • DVSWin v2.18 (control software), • DVS Standard Analysis Suite v4.3 (analysis software).]

[2] = Thermal stability by DSC and TG/DSC analysis
Description: DSC analyses were carried out by using a SETARAM 141 Differential Scanning Calorimeter (SETARAM, 69300 Caluire, France). No purge gas was used. The reference material was an empty aluminum pan without cap. The samples were weighed in open aluminum pans, then placed in the analyzer. The analyses were performed within various temperature ranges using a 2°.min^−1 heating rate. SETARAM ACQUISITION Module software (v. 1.4) was used as control software and data processing was performed by using the SETARAM DATA PROCESSING Module software (v. 1.39).
TG/DSC measurements were carried out by using a NETZSCH STA 449C Jupiter Thermogravimetric Analyzer (NETZSCH, D-95100 Selb, Germany) equipped with a low temperature furnace. The purge gas used was helium (gas flow=60 mL/min) and the reference material was an empty aluminum pan without cap. The samples were weighed in open aluminum pans, then placed in the analyzer. The analyses were performed within various temperature ranges using a 2°.min^−1 heating rate. PROTEUS software was used for the acquisition and data processing (v. 4.7.0).

[3] = DVS hygroscopicity and moisture measurement, first procedure; format: physicochemical
Description: Moisture sorption isotherms of amorphous BrHPP was obtained by using an automated water sorption analyzer. Temperature of analysis was 20° C. For each measurement, precisely ca. 25 mg of the sample were weighed in a pan beforehand allowed for the tare, then placed in the analyzer.
After a stabilization stage at 0% R.H. (R.H. stands for Relative Humidity), mass variations were recorded while R.H. was increased by steps of 20% R.H. The upper limit was adjusted to 80% R.H. This second stage was afterward followed by a stepped decrease of R.H. down to 0% R.H. This overall procedure constitutes a ‘Full cycle’ analysis. Several successive full cycles can be applied to the same sample.

[4] = Chemical stability on storage, evaluated by HPAEC analysis

CC(O)(CBr)CCOP(=O)(O)OP(=O)(O)O (racemic) [BrHPP benzathin salt (Rac)-Mix-I, 3-(bromomethyl)-3-butanol-1-yl diphosphoric acid, N,N′-dibenzylethylenediammonium salts]
reversible and reproducible mass variation, (de)hydration (Rac)-Mix-I / (Rac)-Mix-III ([1]; R.H. in the range of 50%-70%): 6.1% | cumulated mass variations ([1]; between 0% and 50% R.H.): < 0.4% | cumulated mass variations ([1]; high relative humidity (up to 90%)): < 0.2% | temperature of the fusion-degradation event (thermal stability) ([2]; DSC, non solvated crystalline form): above 146 °C

CC(O)(CBr)CCOP(=O)(O)OP(=O)(O)O (racemic) [BrHPP sodium salt, reference compound]
sensitivity to atmospheric water ([3]; even for low R.H.): very sensitive to atmospheric water | deliquescence ([3]; high relative humidities (≧80% R.H.), 20° C., mass not stabilized after 2300 minutes): becomes deliquescent | thermal behaviour in TG/DSC analysis ([2]; fluctuations of DSC signal and continuous mass loss, even for temperatures close to ambient): undergoes chemical degradations | degradation on storage ([4]; 3 months, room temperature (about 25° C.), in contact with ambient atmosphere): 50%

CC(O)(CBr)CCOP(=O)(O)OP(=O)(O)O (stereo not shown) [3-(bromomethyl)-3-butanol-1-yl diphosphoric acid, diquininium salts]
anionic purity of the sample over the storage period ([4]; glass vial, room temperature (20-25° C.), ambient atmosphere (50-70% RH), at least 5 months, HPAEC): 99.5%±0.2% | period over which the compound was found to be stable ([4]; stored in a glass vial at room temperature (20-25° C.) and ambient atmosphere (50-70% Relative Humidity)): at least 5 months

Reference: US20080300222A1, “Phosphoantigen Salts Of Organic Bases And Methods For Their Crystallization” (Innate Pharma, priority 2005, published 2008)
